In US20200392084A1 (priority 2017, published 2020):
In brackets after ≈: the same amount, converted by molar mass. Entries after “also recorded” stand apart in the source; their conditions may differ. Where two headings read alike, the source gives them in different places.

Tests used:
[1] = for hygroscopicity: Example 4; for moisture absorbed: at/up to 95% RH
[2] = 50° C./75% RH, t=5 days
[3] = Stability assessment of diethylamine salt (Example 6); format: physicochemical
[4] = cited from earlier work
[5] = slurried in deionised water, ambient temperature, ca. 24 hrs
[6] = at 90% RH, 25° C.; listed as salt from diethylamine
[7] = H2O/acetone, ca. 12 hrs
[8] = Forced degradation studies (Example 7)
[9] = Solvent solubility screen; format: physicochemical; conditions: thermodynamic from solid
[10] = physchem
[11] = logP determination (pH-metric); format: physicochemical; conditions: 24.9-25.0 °C, 0.15M KCl
[12] = pKa determination (UV-metric); format: physicochemical; conditions: 0.15 M KCl
[13] = 25° C./60% RH, 1 month (Day 35)
[14] = 25° C./60% RH, 3 months (Day 96)
[15] = 40° C./75% RH, 1 month (Day 35)
[16] = 40° C./75% RH, 3 months (Day 96)
[17] = Hydrolytic (humidity), 55° C./75% RH, solid state, 8 days
[18] = Hydrolytic (humidity), 55° C./75% RH, solid state, 14 days
[19] = Hydrolytic, Acid, 1N HCl, 55° C., 8 days
[20] = Hydrolytic, Acid, 1N HCl, 55° C., 14 days
[21] = Hydrolytic, Base, 1N NaOH, 55° C., 8 days
[22] = Hydrolytic, Base, 1N NaOH, 55° C., 14 days
[23] = Oxidative, 3% H2O2, ambient temperature, 8 days
[24] = Photolytic Control (dark control in photochamber), 2X ICH
[25] = Photolytic Control (dark control in photochamber), 3X ICH
[26] = Photolytic, photochamber 25° C., solid state, 2X ICH
[27] = Photolytic, photochamber 25° C., solid state, 3X ICH
[28] = Solution Control (water, 55° C.), 8 days
[29] = Solution Control (water, 55° C.), 14 days
[30] = Solution Control (water, ambient), 8 days
[31] = Solution Control (water, ambient), 14 days
[32] = Thermolytic, 85° C., ambient humidity, solid state, 8 days
[33] = Thermolytic, 85° C., ambient humidity, solid state, 14 days

Compound: NC(CO)(CO)CO.O=C(O)c1cc(/N=N/c2ccc(S(=O)(=O)Nc3ccccn3)cc2)ccc1O [tromethamine salt Form A, sulfasalazine tromethamine (1:1) salt form (Form A)]
- hygroscopicity [1]: hygroscopic
- moisture absorbed [1]: over 8 wt %

Compound: CCNCC.O=C(O)c1cc(/N=N/c2ccc(S(=O)(=O)Nc3ccccn3)cc2)ccc1O [diethylamine salt Form A, sulfasalazine diethylamine salt Form A]
- stability [2]: no evidence of degradation
- hygroscopicity [1]: slightly hygroscopic
- moisture absorbed [1]: more than 1 wt %
- Appearance [3, 13]: Dark Orange
- Assay (Anhydrous, Solvent Free) [3, 13]: 97.2% (w/w %)
- Total Impurities [3, 13]: 0.87%
- Water Content [3, 13]: 0.8% (w/w %)
- XRPD (Conforms to Form A) [3, 13]: Conforms to
- Appearance [3, 14]: Dark Orange
- Assay (Anhydrous, Solvent Free) [3, 14]: 95.9% (w/w %)
- Total Impurities [3, 14]: 0.76%
- Water Content [3, 14]: 0.7% (w/w %)
- XRPD (Conforms to Form A) [3, 14]: Conforms to
- Appearance [3, 15]: Dark Orange
- Assay (Anhydrous, Solvent Free) [3, 15]: 97.9% (w/w %)
- Total Impurities [3, 15]: 0.87%
- Water Content [3, 15]: 1.1% (w/w %)
- XRPD (Conforms to Form A) [3, 15]: Conforms to
- Appearance [3, 16]: Dark Orange
- Assay (Anhydrous, Solvent Free) [3, 16]: 96.5% (w/w %)
- Total Impurities [3, 16]: 0.77%
- Water Content [3, 16]: 1.1% (w/w %)
- XRPD (Conforms to Form A) [3, 16]: Conforms to
- Appearance ([3]; T = 0 (Day 0)): Dark Orange
- Assay (Anhydrous, Solvent Free) ([3]; T = 0 (Day 0)): 99.6% (w/w %)
- Total Impurities ([3]; T = 0 (Day 0)): 0.73%
- Water Content ([3]; T = 0 (Day 0)): 0.4% (w/w %)
- XRPD (Conforms to Form A) ([3]; T = 0 (Day 0)): Conforms to

Compound: NCCCC[C@H](N)C(=O)O.O=C(O)c1cc(/N=N/c2ccc(S(=O)(=O)Nc3ccccn3)cc2)ccc1O [L-Lysine Salt, sulfasalazine L-lysine (1:1) salt]
- Post-agitation pH (pH 1): 1.91
- Pre-agitation pH (pH 1): 0.76
- Post-agitation pH (pH 4.5): 5.63
- Pre-agitation pH (pH 4.5): 4.70
- Post-agitation pH (pH 6.8): 7.17
- Pre-agitation pH (pH 6.8): 6.99

Compound: Nc1ccc(S(=O)(=O)Nc2ccccn2)cc1 [Sulfapyridine, sulfapyridine]
- allergic reactions ([4]; of recipients): 3-8%

Compound: sulfasalazine diethylamine (1:1) salt [Diethylamine Salt]
- Salt disproportionation, XRPD [5]: Small change
- DVS mass uptake [6]: 1.0%
- Hydration studies, XRPD ([7]; High water activity (0.790)): no solid could be obtained
- Hydration studies, XRPD ([7]; Low water activity (0.281)): slight changes; also recorded: Small change
- Hydration studies, XRPD ([7]; Medium water activity (0.572)): slight changes; also recorded: Small change
- % Change [8, 17]: 0.11%
- Area % (main band) [8, 17]: 98.97%
- % Change [8, 18]: −0.02%
- Area % (main band) [8, 18]: 99.10%
- degradation observed ([8]; Hydrolytic (humidity), 75% RH, 55° C., 14 days): Minimal degradation
- Peak Purity ([8]; Hydrolytic (humidity), 14 days): Pass
- % Change [8, 19]: −0.19%
- Area % (main band) [8, 19]: 99.03%
- % Change [8, 20]: −0.25%
- Area % (main band) [8, 20]: 98.93%
- degradation observed [8, 20]: Minimal degradation
- Peak Purity ([8]; Hydrolytic, Acid, 14 days): Pass
- % Change [8, 21]: −0.19%
- Area % (main band) [8, 21]: 99.03%
- % Change [8, 22]: −0.25%
- Area % (main band) [8, 22]: 98.93%
- degradation observed [8, 22]: Minimal degradation
- Peak Purity ([8]; Hydrolytic, Base, 14 days): Pass
- % Change [8, 23]: 1.36%
- Area % (main band) [8, 23]: 97.52%
- Area % (main band) ([8]; Oxidative, 3% H2O2, ambient temperature, 14 days): 97.30%
- Peak Purity ([8]; Oxidative, 14 days): Pass
- % Change [8, 24]: −0.05%
- Area % (main band) [8, 24]: 99.13%
- % Change [8, 25]: −0.05%
- Area % (main band) [8, 25]: 99.13%
- Peak Purity ([8]; Photolytic, 3X ICH): Pass
- degradation observed ([8]; Photolytic, 3× ICH exposure): Minimal degradation
- % Change [8, 26]: 0.42%
- Area % (main band) [8, 26]: 98.71%
- % Change [8, 27]: 0.10%
- Area % (main band) [8, 27]: 99.03%
- Area % (main band) ([8]; Solid Control (unstressed), 0 days): 99.08%
- % Change [8, 28]: 0.24%
- Area % (main band) [8, 28]: 98.84%
- % Change [8, 29]: 0.39%
- Area % (main band) [8, 29]: 98.69%
- % Change [8, 30]: 0.20%
- Area % (main band) [8, 30]: 98.88%
- % Change [8, 31]: 0.20%
- Area % (main band) [8, 31]: 98.88%
- degradation observed ([8]; Thermolytic, 80° C., 14 days): Minimal degradation
- % Change [8, 32]: 0.12%
- Area % (main band) [8, 32]: 98.96%
- % Change [8, 33]: 0.05%
- Area % (main band) [8, 33]: 99.03%
- Peak Purity ([8]; Thermolytic, 14 days): Pass

Compound: O=C(O)c1cc(/N=N/c2ccc(S(=O)(=O)Nc3ccccn3)cc2)ccc1O [Sulfasalazine]
- solubility ([9]; 1,4-dioxane, 40 °C, organic solvent or mixture, 1,4-Dixoane, read-out: Approx. Solubility): < 5000 µg/mL
- solubility ([9]; 1-butanol, 40 °C, organic solvent or mixture, read-out: Approx. Solubility): < 5000 µg/mL
- solubility ([9]; 1-propanol, 40 °C, organic solvent or mixture, read-out: Approx. Solubility): < 5000 µg/mL
- solubility ([9]; 2-propanol, 40 °C, organic solvent or mixture, read-out: Approx. Solubility): < 5000 µg/mL
- solubility ([9]; 2-propanol/water (50:50), 40 °C, aqueous with cosolvent or surfactant or cyclodextrin, read-out: Approx. Solubility): < 5000 µg/mL
- solubility ([9]; 40 °C, organic solvent or mixture, all solvents of the 24-solvent screen except DMF and THF, read-out: solubility values): < 5000 µg/mL
- solubility ([9]; acetone, 40 °C, organic solvent or mixture, read-out: Approx. Solubility): < 5000 µg/mL
- solubility ([9]; acetone/water (50:50), 40 °C, aqueous with cosolvent or surfactant or cyclodextrin, read-out: Approx. Solubility): < 5000 µg/mL
- solubility ([9]; acetonitrile, 40 °C, organic solvent or mixture, read-out: Approx. Solubility): < 5000 µg/mL
- solubility ([9]; acetonitrile/water (50:50), 40 °C, aqueous with cosolvent or surfactant or cyclodextrin, read-out: Approx. Solubility): < 5000 µg/mL
- solubility ([9]; dichloromethane, 40 °C, organic solvent or mixture, read-out: Approx. Solubility): < 5000 µg/mL
- solubility ([9]; dimethylformamide, organic solvent or mixture, read-out: Approx. Solubility): > 100000 µg/mL
- solubility ([9]; ethanol, 40 °C, organic solvent or mixture, read-out: Approx. Solubility): < 5000 µg/mL
- solubility ([9]; ethyl acetate, 40 °C, organic solvent or mixture, read-out: Approx. Solubility): < 5000 µg/mL
- solubility ([9]; ethyl formate, 40 °C, organic solvent or mixture, read-out: Approx. Solubility): < 5000 µg/mL
- solubility ([9]; heptane, 40 °C, organic solvent or mixture, Hepatane, read-out: Approx. Solubility): < 5000 µg/mL
- solubility ([9]; isobutyl acetate, 40 °C, organic solvent or mixture, read-out: Approx. Solubility): < 5000 µg/mL
- solubility ([9]; isopropyl acetate, 40 °C, organic solvent or mixture, read-out: Approx. Solubility): < 5000 µg/mL
- solubility ([9]; methanol, 40 °C, organic solvent or mixture, read-out: Approx. Solubility): < 5000 µg/mL
- solubility ([9]; methanol/water (50:50), 40 °C, aqueous with cosolvent or surfactant or cyclodextrin, read-out: Approx. Solubility): < 5000 µg/mL
- solubility ([9]; methyl ethyl ketone, 40 °C, organic solvent or mixture, Methylethyl Ketone, read-out: Approx. Solubility): < 5000 µg/mL
- solubility ([9]; nitromethane, 40 °C, organic solvent or mixture, read-out: Approx. Solubility): < 5000 µg/mL
- solubility ([9]; tetrahydrofuran, organic solvent or mixture, read-out: Approx. Solubility): 10000 µg/mL (≈ 25.1 mM)
- solubility ([9]; toluene, 40 °C, organic solvent or mixture, read-out: Approx. Solubility): < 5000 µg/mL
- solubility ([9]; water, 40 °C, water, read-out: Approx. Solubility): < 5000 µg/mL
- Significant side effects occur in ([4]; of people): about 25%
- Thermodynamic solubility, Concentration (pH 1): Less than the limit
- Thermodynamic solubility, Concentration (pH 4.5): Less than the limit
- Thermodynamic solubility, Concentration (pH 6.8): Less than the limit
- solubility ([10]; acetone, organic solvent or mixture): 1100 µg/mL (≈ 2.76 mM)
- solubility ([10]; acetonitrile, organic solvent or mixture): 300 µg/mL (≈ 0.753 mM)
- solubility ([10]; ethanol, organic solvent or mixture): 500 µg/mL (≈ 1.26 mM)
- solubility ([10]; ethyl acetate, organic solvent or mixture): 400 µg/mL (≈ 1 mM)
- solubility ([10]; isopropyl alcohol, organic solvent or mixture): 500 µg/mL (≈ 1.26 mM)
- solubility ([10]; methanol, organic solvent or mixture): 900 µg/mL (≈ 2.26 mM)
- solubility ([10]; methyl ethyl ketone, organic solvent or mixture): 900 µg/mL (≈ 2.26 mM)
- solubility ([10]; methyl tert-butyl ether, organic solvent or mixture): 300 µg/mL (≈ 0.753 mM)
- solubility ([10]; water): 400 µg/mL (≈ 1 mM)
- LogP ([11]; Cationic species): 3.73 ± 0.01
- LogP ([11]; Zwitterionic species): 0.02 ± 0.03
- pKa ([12]; Type Acid (first acidic group), 25.0 °C): 2.29
- pKa ([12]; Type Acid (second acidic group), 25.0-25.1 °C): 11
- pKa ([12]; Type Base (pyridine), 25.0-25.1 °C): ~8.05
